Results published in patent publication US9629828B2, “Methods of treating traveler's diarrhea and hepatic encephalopathy” (priority 2008, dated 2017).
“And” between values parts separate entries of the source, which are not always exact repeats. Equal values may be shown once. “Also recorded” adds a separate entry of the source.

Columns and labels:
[1] = test system: liver transplant patients who presented with HE; test: Chart review of 39 liver transplant patients with HE; type: in vivo, human
[2] = target: P-gp transporter (Homo sapiens, UniProt P08183); test: In vitro P-gp transporter inhibition; type: in vitro ADME; details: 50 μM
Chain of P-gp transporter (P08183 whole entry): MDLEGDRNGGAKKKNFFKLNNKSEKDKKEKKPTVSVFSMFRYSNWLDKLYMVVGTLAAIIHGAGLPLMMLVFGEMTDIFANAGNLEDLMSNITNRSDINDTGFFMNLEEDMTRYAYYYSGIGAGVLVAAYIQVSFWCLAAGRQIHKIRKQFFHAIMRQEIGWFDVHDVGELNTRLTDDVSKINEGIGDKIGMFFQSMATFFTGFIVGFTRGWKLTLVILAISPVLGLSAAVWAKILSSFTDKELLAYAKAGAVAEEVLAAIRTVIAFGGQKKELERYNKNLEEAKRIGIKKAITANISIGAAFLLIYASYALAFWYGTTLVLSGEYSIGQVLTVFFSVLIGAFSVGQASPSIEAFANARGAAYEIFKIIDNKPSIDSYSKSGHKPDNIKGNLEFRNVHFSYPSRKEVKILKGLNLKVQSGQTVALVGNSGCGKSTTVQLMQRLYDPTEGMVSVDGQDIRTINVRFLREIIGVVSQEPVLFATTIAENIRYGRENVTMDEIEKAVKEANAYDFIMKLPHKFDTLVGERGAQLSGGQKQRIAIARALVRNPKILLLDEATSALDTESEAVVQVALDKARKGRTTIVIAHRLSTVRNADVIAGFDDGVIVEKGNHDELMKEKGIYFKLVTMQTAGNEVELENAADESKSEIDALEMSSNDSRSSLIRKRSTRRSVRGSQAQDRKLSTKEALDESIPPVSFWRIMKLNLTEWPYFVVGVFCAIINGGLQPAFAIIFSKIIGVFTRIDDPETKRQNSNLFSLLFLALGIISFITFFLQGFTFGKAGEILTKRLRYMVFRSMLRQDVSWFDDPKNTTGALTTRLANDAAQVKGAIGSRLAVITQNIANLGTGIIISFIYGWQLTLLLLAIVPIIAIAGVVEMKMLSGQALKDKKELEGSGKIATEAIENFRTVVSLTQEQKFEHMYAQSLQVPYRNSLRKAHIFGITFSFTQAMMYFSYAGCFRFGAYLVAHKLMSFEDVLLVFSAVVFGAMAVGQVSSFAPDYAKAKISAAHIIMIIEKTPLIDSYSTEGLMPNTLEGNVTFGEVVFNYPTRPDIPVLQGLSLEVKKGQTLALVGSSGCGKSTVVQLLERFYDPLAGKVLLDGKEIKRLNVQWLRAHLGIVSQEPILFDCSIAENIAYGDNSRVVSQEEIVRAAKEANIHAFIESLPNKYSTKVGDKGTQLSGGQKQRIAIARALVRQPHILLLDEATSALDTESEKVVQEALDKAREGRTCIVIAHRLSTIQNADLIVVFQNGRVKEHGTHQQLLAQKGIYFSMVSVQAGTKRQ

[3] = test system: subjects with a history of recurrent, overt, episodic HE; test: Second study: changes in Conn scores and asterixis grades; type: in vivo, human
Text: Normalizing for subject exposure, this represents a hospitalization rate of 0.60 event/PEY. A total of 59 were hospitalized due HE episodes (e.g., HE-caused). Normalizing for subject exposure, this represents an HE-caused hospitalization rate of 0.29 event/PEY. […] All subjects were capable of worsening over time, and 24/266 subjects (9.0%) did so by 1 or 2 grades.
The last visit for the second study is the last visit recorded for the interim analysis.
A total of 65.5% of subjects (220 of 337) had no change in Conn score and 21.1% (71 of 337) had improvements in Conn score from baseline to last visit. […] No change from baseline in asterixis grade was reported for 75.2% of subjects (252 of 337), and 17.3% had improvements.

[4] = test system: CYP3A4; test: Clinical drug interaction: rifaximin 550 mg TID on oral midazolam
[5] = Post approval adverse reactions; type: in vivo, human; details: post approval use
Text: Because these reactions are reported voluntarily from a population of unknown size, estimates of frequency cannot be made.

[6] = test system: subjects in remission from hepatic encephalopathy (HE); test: First study: Conn score (time to any increase, change from baseline); type: in vivo, human; details: for Event probability (increase in Conn score during the treatment interval) / Probability of no increase in Conn score: Kaplan-Meier; for Event probability (increase in Conn score during the treatment interval) / Probability of no increase in Conn score / Cumulative number of events (increase in Conn score) / Number of events (increase in Conn score): ITT, N = 140
Text: The scale used in the Conn scoring system is provided below. • Grade 0=No personality or behavioral abnormality detected • Grade 1=Trivial lack of awareness, euphoria or anxiety; shortened attention span; impairment of addition or subtraction • Grade 2=Lethargy; disorientation for time; obvious personality change; inappropriate behavior • Grade 3=Somnolence to semi-stupor, responsive to stimuli; confused; gross disorientation; bizarre behavior • Grade 4=Coma; unable to test mental state
Change in mental status was measured by the Conn score (also known as the West Haven score). The Conn score has been widely used as a measure of mental state in HE studies and is based on the criteria of Parsons-Smith as modified by Conn. The scale used in the Conn scoring system is described above.
Subjects who discontinued prior to experiencing an increase in Conn score and prior to completion of the 6-month treatment period were censored at the time of discontinuation.

[7] = human
Method: The covariates chosen for the analysis are known indicators of hepatic and renal function. A visual diagnostic was performed to detect potential trends between covariates of interest and AUCτ, Cmax, and CL/F.

[8] = test system: patients with hepatic encephalopathy; test: First study: adverse events, rifaximin 550 mg BID; type: in vivo, human
Text: Ninety-one percent of patients in the trial were taking lactulose concomitantly. […] (These include adverse events that may be attributable to the underlying disease.)
The following includes adverse events occurring at a greater incidence than placebo, regardless of causal relationship to drug exposure.
A total of 79.9% of subjects (239 of 299) experienced TEAEs during the course of the study.

[9] = in vitro; details: human, plasma
[10] = all rifaximin experience, 337 subjects
[11] = treatment interval 0 to <28 days
[12] = treatment interval 28 to <56 days
[13] = treatment interval 56 to <84 days
[14] = treatment interval 84 to <140 days
[15] = treatment interval 140 to <168 days

## CO[C@H]1/C=C/O[C@@]2(C)Oc3c(C)c(O)c4c(O)c(c5c(nc6cc(C)ccn65)c4c3C2=O)NC(=O)/C(C)=C\C=C\[C@H](C)[C@H](O)[C@@H](C)[C@@H](O)[C@@H](C)[C@H](OC(C)=O)[C@@H]1C [rifaximin, (2S,16Z,18E,20S,21S,22R,23R,24R,25 S,26S,27S,28E)-5,6,21,23,25-pentahydroxy-27-methoxy-2,4,11,16,20,22,24,26-octamethyl-2,7-(epoxypentadeca-[1,11,13]trienimino)benzofuro[4,5-e]pyrido[1,2-á]-benzimidazole-1,15(2H)-dione,25-acetate]
[1]; 15 rifaximin, 24 lactulose patients
  hospitalizations reported: 3
[1]; human, in vivo
  average length of stay: 3.5 days
[2]
  inhibition of transport of a model P-gp substrate: only partially inhibited
[3]; 67 subjects
  subjects improved among those entering with asterixis scores of 1, 2, or 3: 64.2%
  subjects with 1-grade asterixis improvement: 50.7%
  subjects with 2-grade asterixis improvement: 6.0%
  subjects with 3-grade asterixis improvement: 7.5%
[3]; 70 subjects
  subjects with worsening asterixis, continuing rifaximin: 8.6%
[3]; 84 subjects
  subjects improved among those entering with Conn scores of 1, 2, or 3: 64.3%
  subjects with 1-grade Conn improvement: 56.0%
  subjects with 2-grade Conn improvement: 8.3%
[3]; 99 subjects
  subjects improved in asterixis grade among those entering with grade ≧1: 58.6%
[3]; 118 subjects
  subjects improved to Conn score 0 among those entering with Conn ≧1: 62.2%
[3]; 196 subjects
  subjects with worsening asterixis, new rifaximin: 6.1%
[3]; 266 subjects
  subjects with Conn worsening by 1 or 2 grades: 9.0%
  subjects with improvements in Conn scores at last visit: 20.3%
  subjects with improvements in asterixis scores: 16.2%
  subjects with mental status maintained or improved: 91%
  subjects with neuromotor symptoms maintained: 83.3%
  subjects with no change in Conn score at last visit: 70.7%
  subjects with no change in asterixis at last visit: 77.1%
[3]; all rifaximin experience
  subjects with improvements in asterixis grade: 17.3%
  subjects with maintenance or improvements in asterixis grades: > 90%
[3]; [10]
  subjects with improvements in Conn score: 21.1%
  subjects with no change in Conn score: 65.5%
  subjects with no change in asterixis grade: 75.2%
[3]; all rifaximin experience, up to 840 days
  subjects with maintenance or improvement in Conn scores: > 85%
[4]
  CYP3A4 induction in vivo / midazolam exposure: only slightly reduced exposure; also recorded: weak inducer of CYP3A4
[5]
  C. difficile-associated colitis: have been reported
[6]; [11]
  Event probability (increase in Conn score during the treatment interval): 0.012
  Probability of no increase in Conn score: 1.0000
  Cumulative number of events (increase in Conn score): 17
  Number of events (increase in Conn score): 17
[6]; [12]
  Event probability (increase in Conn score during the treatment interval): 0.04
  Probability of no increase in Conn score: 0.8777
  Cumulative number of events (increase in Conn score): 22
  Number of events (increase in Conn score): 5
[6]; [13]
  Event probability (increase in Conn score during the treatment interval): 0.08
  Probability of no increase in Conn score: 0.8407
  Cumulative number of events (increase in Conn score): 31
  Number of events (increase in Conn score): 9
[6]; [14]
  Event probability (increase in Conn score during the treatment interval): 0.05
  Probability of no increase in Conn score: 0.7713
  Cumulative number of events (increase in Conn score): 36
  Number of events (increase in Conn score): 5
[6]; [15]
  Event probability (increase in Conn score during the treatment interval): 0
  Probability of no increase in Conn score: 0.7302
  Cumulative number of events (increase in Conn score): 36
  Number of events (increase in Conn score): 0
[6]; treatment interval ≧168 days
  Event probability (increase in Conn score during the treatment interval): 0.03
  Probability of no increase in Conn score: 0.7302
  Cumulative number of events (increase in Conn score): 37
  Number of events (increase in Conn score): 1
[6]; any increase in Conn score, days r10-r15 as E1001
  Survival: 1.0000 and 0.8777 and 0.8407 and 0.7713 and 0.7302
[6]; baseline to end of treatment
  subjects with Conn score changes of −1 or no change: 77.1%
[6]; in vivo
  prevention of worsening of Conn score, times versus placebo: 2.46 times
  reduction in risk of first worsening in Conn Score: 54%
  subjects with increases in Conn score: 37 of 140
  time to first increase in Conn scores vs placebo (FIG. 4): increased time to the first increase in Conn scores
[7]
  Regression estimate for AUCτ: Albumin: −0.0573
  Regression estimate for AUCτ: INR: −1.7432
  Regression estimate for AUCτ: Intercept: 8.4175
  Regression estimate for AUCτ: Total Bilirubin: 0.0173
  Regression estimate for CL/F: ALT: −0.0028
  Regression estimate for CL/F: Albumin: 0.0783
  Regression estimate for CL/F: INR: 2.5949
  Regression estimate for CL/F: Intercept: −0.8934
  Regression estimate for CL/F: Total Bilirubin: −0.0185
  Regression estimate for Cmax: ALT: 0.0031
  Regression estimate for Cmax: Albumin: −0.0515
  Regression estimate for Cmax: INR: −2.0654
  Regression estimate for Cmax: Intercept: 6.5350
  Regression estimate for Cmax: Total Bilirubin: 0.0207
[8]; 550 mg BID, N = 140
  Abdominal distension: 11 (7.9%) Number (%) of Patients
  Abdominal pain: 12 (8.6%) Number (%) of Patients
  Abdominal pain upper: 9 (6.4%) Number (%) of Patients
  Anemia: 11 (7.9%) Number (%) of Patients
  Arthralgia: 9 (6.4%) Number (%) of Patients
  Ascites: 16 (11.4%) Number (%) of Patients
  Back pain: 9 (6.4%) Number (%) of Patients
  Constipation: 9 (6.4%) Number (%) of Patients
  Cough: 10 (7.1%) Number (%) of Patients
  Depression: 10 (7.1%) Number (%) of Patients
  Dizziness: 18 (12.9%) Number (%) of Patients
  Dyspnea: 9 (6.4%) Number (%) of Patients
  Edema peripheral: 21 (15.0%) Number (%) of Patients
  Fatigue: 17 (12.1%) Number (%) of Patients
  Insomnia: 10 (7.1%) Number (%) of Patients
  Muscle spasms: 13 (9.3%) Number (%) of Patients
  Nasopharyngitis: 10 (7.1%) Number (%) of Patients
  Nausea: 20 (14.3%) Number (%) of Patients
  Pruritus: 13 (9.3%) Number (%) of Patients
  Pyrexia: 9 (6.4%) Number (%) of Patients
  Rash: 7 (5.0%) Number (%) of Patients
[8]; first study
  TEAE ascites: 11.4%
  TEAE diarrhea: 10.7%
  TEAE dizziness: 12.9%
  TEAE fatigue: 12.1%
  TEAE headache: 10%
  TEAE nausea: 14.3%
  TEAE peripheral edema: 15%
[8]; in vivo
  early study discontinuation due to adverse reactions: 6%
[9]
  fraction unbound: 0.447
